Reference: ChEMBL document CHEMBL6083241, “The heterodimer of 2-amino-1,8-naphthyridine and 3-aminoisoquinoline binds to the CTG/CTG triad via hydrogen bonding” (Bioorg Med Chem Lett, 2024)
Activity calls are given as the source filed them. The calls are words filed in the database; no cut-off is given here.

Tests used:
Type in all cases: nucleic-acid assay
CTG repeat expansion [1] = experiment: Binding affinity to dsDNA CTG/CTG triad (unknown origin) assessed as melting temperature at 50 uM […]
CTG repeat expansion [2] = experiment: Binding affinity to dsDNA CTG/CTG triad (unknown origin) assessed as change in melting temperature by […]
CAG repeat expansion [3] = experiment: Binding affinity to dsDNA CAG/CAG motif (unknown origin) assessed as melting temperature at 50 uM […] (reference value: 21.8 +/-0.2 degreeC)
CGG repeat expansion [4] = experiment: Binding affinity to dsDNA CGG/CGG motif (unknown origin) assessed as melting temperature at 50 uM […] (reference value: 28.2 +/-0.3 degreeC)
CCG repeat expansion [5] = experiment: Binding affinity to dsDNA CCG/CCG motif (unknown origin) assessed as melting temperature at 50 uM […] (reference value: 21.6 +/-0.2 degreeC)
CCG/CGG motif [6] = experiment: Binding affinity to dsDNA CCG/CGG motif (unknown origin) assessed as melting temperature at 50 uM […] (reference value: 44.8 +/-0.5 degreeC)
CAG/CTG motif [7] = experiment: Binding affinity to dsDNA CAG/CTG motif (unknown origin) assessed as melting temperature at 50 uM […] (reference value: 38.5 +/-0.4 degreeC)
TTT/ATA motif [8] = experiment: Binding affinity to dsDNA TTT/ATA motif (unknown origin) assessed as melting temperature at 50 uM […] (reference value: 16.6 +/-0.2 degreeC)
CAG repeat expansion [9] = experiment: Binding affinity to dsDNA CAG/CAG motif (unknown origin) assessed as change in melting temperature at 50 uM […]
CGG repeat expansion [10] = experiment: Binding affinity to dsDNA CGG/CGG motif (unknown origin) assessed as change in melting temperature at 50 uM […]
CCG repeat expansion [11] = experiment: Binding affinity to dsDNA CCG/CCG motif (unknown origin) assessed as change in melting temperature at 50 uM […]
CCG/CGG motif [12] = experiment: Binding affinity to dsDNA CCG/CGG motif (unknown origin) assessed as change in melting temperature at 50 uM […]
CAG/CTG motif [13] = experiment: Binding affinity to dsDNA CAG/CTG motif (unknown origin) assessed as change in melting temperature at 50 uM […]
TTT/ATA motif [14] = experiment: Binding affinity to dsDNA TTT/ATA motif (unknown origin) assessed as change in melting temperature at 50 uM […]
CTG repeat expansion [15] = experiment: Binding affinity to dsDNA CTG/CTG triad (unknown origin) assessed as increase in band intensity at 50 uM by circular dichroism analysis
CAG repeat expansion [16] = experiment: Binding affinity to dsDNA CAG/CAG triad (unknown origin) assessed as increase in band intensity at 50 uM by circular dichroism analysis
CGG repeat expansion [17] = experiment: Binding affinity to dsDNA CGG/CGG triad (unknown origin) assessed as increase in band intensity at 50 uM by circular dichroism analysis
CCG repeat expansion [18] = experiment: Binding affinity to dsDNA CCG/CCG triad (unknown origin) assessed as increase in band intensity at 50 uM by circular dichroism analysis
CTG repeat expansion [19] = experiment: Binding affinity to dsDNA CTG/CTG triad (unknown origin) assessed as increase in band intensity by circular dichroism analysis; conditions: dose 20-60 µM
CTG repeat expansion [20] = experiment: Binding affinity to (CTG)9 repeat DNA (unknown origin) assessed as increase in band intensity at 20 to 60 uM by circular dichroism analysis; conditions: dose 20-60 µM
CTG repeat expansion [21] = experiment: Binding affinity to dsDNA CTG/CTG motif (unknown origin) assessed as gibbs free energy change measured every 2 mins by ITC analysis
CTG repeat expansion [22] = experiment: Binding affinity to dsDNA CTG/CTG motif (unknown origin) assessed as dissociation constant measured every 2 mins by ITC analysis
CTG repeat expansion [23] = experiment: Binding affinity to dsDNA CTG/CTG motif (unknown origin) assessed as change in enthalpy measured every 2 mins by ITC analysis
CTG repeat expansion [24] = experiment: Binding affinity to dsDNA CTG/CTG motif (unknown origin) assessed as change in entropy measured every 2 mins by ITC analysis
CGG repeat expansion [25] = experiment: Binding affinity to dsDNA CGG/CGG triad (unknown origin) measured upto 50 mins by ITC analysis
CTG repeat expansion [26] = experiment: Binding affinity to dsDNA CTG/CTG triad (unknown origin) assessed as decrease in imino proton signals by NMR analysis

`Cc1ccc2ccc(NC(=O)OCCCNCCCOC(=O)Nc3ccccn3)nc2n1` was tested, and the Tm (CTG repeat expansion [1]) was 27.8 °C and the ΔTm (CTG repeat expansion [2]) was 0 °C.

`Cc1ccc2ccc(NC(=O)OCCCN)nc2n1` was tested, and the Tm (CTG repeat expansion [1]) was 28 °C and the ΔTm (CTG repeat expansion [2]) was 0.2 °C.

Compound `Cc1ccc2ccc(NC(=O)OCCCNCCCOC(=O)Nc3ccc4ccccc4n3)nc2n1` has a Tm (CTG repeat expansion [1]) of 27.7 °C and a ΔTm (CTG repeat expansion [2]) of -0.1 °C.

With `NCCCOC(=O)Nc1cc2ccccc2cn1` the Tm (CTG repeat expansion [1]) was 28.1 °C and the ΔTm (CTG repeat expansion [2]) was 0.3 °C.

For `Cc1ccc2ccc(NC(=O)OCCCNCCCOC(=O)Nc3ccc4ccc(C)nc4n3)nc2n1`, the Tm (CTG repeat expansion [1]) was 27.9 °C and the ΔTm (CTG repeat expansion [2]) was 0.1 °C.

`Cc1ccc2ccc(NC(=O)OCCCNCCCOC(=O)Nc3cc4ccccc4cn3)nc2n1` gave a Tm (CTG repeat expansion [1]) of 33.6 °C, a ΔTm (CTG repeat expansion [2]) of 5.8 °C and a Tm (CAG repeat expansion [3]) of 24.6 °C. It also gave a Tm (CGG repeat expansion [4]) of 32.1 °C, a Tm (CCG repeat expansion [5]) of 24.1 °C and a Tm (CCG/CGG motif [6]) of 44.8 °C. The Tm (CAG/CTG motif [7]) was 38.2 °C, the Tm (TTT/ATA motif [8]) was 20.1 °C and the ΔTm (CAG repeat expansion [9]) was 2.8 °C. For the same compound, the ΔTm (CGG repeat expansion [10]) was 3.9 °C, the ΔTm (CCG repeat expansion [11]) was 2.5 °C and the ΔTm (CCG/CGG motif [12]) was 0 °C. The ΔTm (CAG/CTG motif [13]) was -0.2 °C, the ΔTm (TTT/ATA motif [14]) was 3.5 °C and the Activity (CTG repeat expansion [15]) was “Active”. The Activity (CAG repeat expansion [16]) was “inactive”, the Activity (CGG repeat expansion [17]) was “inactive” and the Activity (CCG repeat expansion [18]) was “inactive”. The Activity (CTG repeat expansion [19]) was “Dose-dependent-effect”, the Activity (CTG repeat expansion [20]) was “Active” and the deltaG (CTG repeat expansion [21]) was -7.8 kcal/mol. For the same compound, the Kd (CTG repeat expansion [22]) was 1900 nM, the deltaH (CTG repeat expansion [23]) was -37.8 kcal/mol and the -TdeltaS (CTG repeat expansion [24]) was 29.2 kcal/mol. The Activity (CGG repeat expansion [25]) was “Active” and the Activity (CTG repeat expansion [26]) was “Active”.
